The target in one assay is PTPμ (Homo sapiens, UniProt P28827). Nature of the assay: In vitro phosphatase assay, GST-PTPμ_intra, malachite green. It counts as biochemical. On the set-up: A2: GST-PTPμ_intra, entire intracellular domain, aa 765-1449 (phosphatase). As for the experimental part:
FIG. 8 illustrates a histogram showing the results of the phosphatase assays. […] The enzyme was pretreated on ice for 10 min, and the reactions started by addition of a peptide substrate and incubation at 30 °C. The amount of released phosphate was measured at 15 min using the malachite green reaction and normalized to that of the vehicle-treated control. Data is presented as percentages±s.e.m. of the indicated number of independent experiments. Differences were assessed using the Student's t-test with comparison to an untreated control sample (as all DMSO samples were set to 100% release). A difference was deemed significant at p<0.05.
A GST fusion protein containing the intracellular domain of PTPμ (B5: aa 765-1449) (PTPμ_intra) was prepared as described. Phosphatase reactions (50 μl total volume) were assembled on ice by mixing 0.4 μg GST-PTPμ_intra with phosphatase buffer (25 mM Hepes pH 7.4, 50 mM NaCl and 2 mM DTT) and compounds (100 μM) or DMSO (1%). […] Colorimetric product was allowed to develop for 15 min at room temperature, and the absorbance of the samples and a standard curve of free phosphate (assembled per the manufacturer's instructions) were read at 600 nm on a Synergy HT Microplate Reader (BioTek Instruments Inc., Winooski, Vermont). The amount of released phosphate was calculated, normalized to that released by the DMSO control sample, and expressed as a percent. […]

The next assay concerns LN229 tumor xenograft. Nature of the assay: Human glioma flank tumor (LN229) growth assay in nude mice. The assay is classed as in vivo, athymic nude mice; human LN229 cells. As to the method:
FIGS. 9(A-C) illustrates a plot and images of the results of the human glioma tumor model in mice. LN229-flank tumors (n=6 per treatment group) established in nude mice were injected with vehicle or compound once a week for three weeks. A. Tumor sizes were measured once a week for four weeks and normalized to their starting sizes. Data is presented as average percent growth±s.e.m. Between-group comparisons were made using Student's t-test. Differences were considered significant at p<0.05. […] Representative images of H&E-stained sections from tumors (two per treatment group) harvested at 4-weeks are shown.
Glioma-cell tumor xenografts were prepared as previously described. Briefly, LN229 cells (2×10^6 per injection) mixed with Matrigel (Corning, Corning Inc., Corning, NY, USA) were subcutaneously injected into the flank of athymic nude (FoxN1^nu/Foxn1^nu) female mice bred by the Case Western Reserve University Athymic Animal Core Facility or obtained from The Jackson Laboratory (Bar Harbor, ME). Experiments were approved by our IACUC committee. Twelve days post tumor-cell-injection, 247678835 or DMSO was diluted into PBS to give final concentrations of 2 mM or 20%, respectively, and 25 μl was injected into the center of each flank tumor. Additional compound or DMSO injections were given 7 and 14 days after the first injection, and tumor volumes [(length×width^2)/2] were recorded once a week for 4 weeks. At four weeks, mice were sacrificed, and tumors were isolated, fixed in 10% buffered formalin, and prepared for paraffin sectioning. Five micron-thick sections were cut, stained with H&E, and images captured with a Hamamatsu Nanozoomer S60 Slide Scanner (Hama-matsu Photonics, K.K., Bridgewater, NJ, USA).
Human LN229 glioma cells were subcutaneously injected into the flanks of twelve athymic nude mice (n=6 per treatment group). Once tumors were established (12-days post cell injection), DMSO or 247678835 was injected into the center of each tumor once a week for three weeks, and tumor volumes were calculated from caliper measurements. […] Mice were sacrificed 4 weeks after the first treatment, and tumors were harvested, fixed, sectioned, and stained with H&E.

SMILES strings stand for the structures. “Also recorded” adds a separate entry of the source.

Sequence of PTPμ (P28827 21-1452): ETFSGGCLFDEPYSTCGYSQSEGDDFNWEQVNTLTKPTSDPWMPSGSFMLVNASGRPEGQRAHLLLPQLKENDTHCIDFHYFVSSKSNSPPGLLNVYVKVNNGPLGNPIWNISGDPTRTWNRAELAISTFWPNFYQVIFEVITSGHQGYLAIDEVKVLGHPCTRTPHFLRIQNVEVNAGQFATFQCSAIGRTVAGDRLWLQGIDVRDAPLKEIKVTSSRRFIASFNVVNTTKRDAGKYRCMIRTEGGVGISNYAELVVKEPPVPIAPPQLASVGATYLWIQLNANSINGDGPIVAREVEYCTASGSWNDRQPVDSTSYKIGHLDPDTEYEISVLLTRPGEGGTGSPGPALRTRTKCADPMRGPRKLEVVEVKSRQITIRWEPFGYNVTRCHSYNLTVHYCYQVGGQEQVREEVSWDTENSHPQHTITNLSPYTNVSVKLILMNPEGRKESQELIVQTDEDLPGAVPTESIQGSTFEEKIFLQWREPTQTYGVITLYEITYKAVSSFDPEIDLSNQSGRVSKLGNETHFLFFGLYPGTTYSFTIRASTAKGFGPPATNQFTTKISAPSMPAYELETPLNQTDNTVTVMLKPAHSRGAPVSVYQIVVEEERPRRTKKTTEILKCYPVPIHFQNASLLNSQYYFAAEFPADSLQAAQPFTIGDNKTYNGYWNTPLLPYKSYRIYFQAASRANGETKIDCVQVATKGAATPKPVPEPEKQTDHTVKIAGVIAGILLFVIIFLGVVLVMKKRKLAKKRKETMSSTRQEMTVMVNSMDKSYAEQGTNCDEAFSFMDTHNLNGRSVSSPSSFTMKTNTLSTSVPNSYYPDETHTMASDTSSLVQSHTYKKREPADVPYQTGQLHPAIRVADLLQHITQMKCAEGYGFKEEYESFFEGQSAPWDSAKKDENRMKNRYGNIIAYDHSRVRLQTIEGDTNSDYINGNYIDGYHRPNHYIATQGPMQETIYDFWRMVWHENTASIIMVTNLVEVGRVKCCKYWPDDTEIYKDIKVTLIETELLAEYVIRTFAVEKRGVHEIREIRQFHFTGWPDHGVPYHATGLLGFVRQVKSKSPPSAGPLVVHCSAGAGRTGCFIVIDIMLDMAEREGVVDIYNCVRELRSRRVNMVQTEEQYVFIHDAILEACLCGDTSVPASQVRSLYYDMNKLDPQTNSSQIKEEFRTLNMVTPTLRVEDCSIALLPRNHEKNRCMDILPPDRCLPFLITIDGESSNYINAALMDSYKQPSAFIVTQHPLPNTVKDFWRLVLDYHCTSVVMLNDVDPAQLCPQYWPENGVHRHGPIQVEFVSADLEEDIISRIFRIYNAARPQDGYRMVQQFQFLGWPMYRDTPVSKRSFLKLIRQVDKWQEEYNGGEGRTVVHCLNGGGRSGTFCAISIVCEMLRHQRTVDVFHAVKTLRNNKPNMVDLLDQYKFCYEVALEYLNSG

`O=C(NCc1nc(-c2ccncc2)no1)c1ccc(Cl)c(S(=O)(=O)NCc2ccccc2)c1` [Compound 247678791]: at PTPμ (role: inhibitor, 100 μM, peptide substrate 60 μM, 30 °C, pH 7.4), the “Effect on PTPμ phosphatase activity (released phosphate)” value is given as “modestly inhibit PTPμ's catalytic activity in vitro; also recorded: modest, but highly consistent reduction in released phosphate; also recorded: modestly inhibit the phosphatase activity of a PTPμ-intracellular construct; also recorded: modest, but statistically significant, reduction on enzymatic activity”.
With `COc1cc(C)ccc1OCC(=O)Nc1nc(-c2c[nH]c(C(N)=O)c2)cs1` [Compound 247678835], the “Tumor size relative to starting size” value with LN229 tumor xenograft (3 weeks post first injection, intratumoral once a week, 2 mM, 25 μl) came out at 1.3 ×. The “Effect on tumor growth after treatment stopped” value with LN229 tumor xenograft (4 weeks post first injection, in words) is given as “appeared to rebound; also recorded: no longer statistically appreciable at 4 weeks post-injection”. Further, in the assay with LN229 tumor xenograft (tumors harvested at 4 weeks), the “Tumor histology (H&E)” value was “generally appeared less ‘cellular’ than DMSO-treated controls; also recorded: appeared smaller and less cellular”. The “Effect on tumor growth” value in the assay on LN229 tumor xenograft (up to 3 weeks post first injection, intratumoral, in words) is reported as “inhibit glioma-cell growth in a human glioma tumor model in mice; also recorded: inhibit flank tumor growth in vivo; also recorded: able to affect tumor growth in vivo; also recorded: slowed tumor growth, producing a statistically significant growth reduction by 3 weeks post-first injection”. Also, on PTPμ (apparent reaction product in absence of enzyme/substrate), the “Interference with malachite green dye” value is on record as “reacted with the malachite green dye, giving an apparent reaction product in the absence of enzyme/substrate; also recorded: interacted with the dye used to measure the release of free phosphate”.

For the origin of these results see US20260355168A1, “COMPOSITIONS AND METHODS FOR TREATING AND DETECTING CANCER” (CASE WESTERN RESERVE UNIVERSITY, priority 2022, published 2026).
